From patent publication US20050065189A1, “Thiazole derivatives as cannabinoid receptor modulators” (SOLVAY PHARMACEUTICALS B.V., priority 2003, published 2005)
Where two headings read alike, the source gives them in different places.

How the values were obtained:
[1] = target: T1, human cannabinoid CB1 receptor (Homo sapiens, UniProt P21554); assay: In vitro affinity for human cannabinoid CB1 receptors ([3H]CP-55,940 radioligand binding, CHO cell membranes)
T1 construct: expressed in transfected cells; host or cells: Chinese hamster ovary (CHO) cells, membrane preparation
T1 sequence (P21554 whole entry): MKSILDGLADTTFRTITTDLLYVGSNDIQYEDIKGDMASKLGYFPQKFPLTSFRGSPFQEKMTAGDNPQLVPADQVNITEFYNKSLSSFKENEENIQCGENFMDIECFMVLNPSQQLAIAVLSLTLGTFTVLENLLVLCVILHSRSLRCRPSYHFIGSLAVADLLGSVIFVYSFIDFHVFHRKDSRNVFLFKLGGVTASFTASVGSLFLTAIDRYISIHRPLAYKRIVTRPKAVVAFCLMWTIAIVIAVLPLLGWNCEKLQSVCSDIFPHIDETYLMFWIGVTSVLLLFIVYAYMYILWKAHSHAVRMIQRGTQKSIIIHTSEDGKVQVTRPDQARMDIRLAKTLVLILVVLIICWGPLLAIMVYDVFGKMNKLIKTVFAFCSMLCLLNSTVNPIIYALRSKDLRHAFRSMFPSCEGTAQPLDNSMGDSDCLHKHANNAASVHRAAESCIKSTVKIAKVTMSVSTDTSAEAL
Experimental: In vitro Affinity for Human Cannabinoid CB1 Receptors
(§1) The affinity of the compounds of the invention for cannabinoid CB1 receptors can be determined using membrane preparations of Chinese hamster ovary (CHO) cells in which the human cannabinoid CB1 receptor is stably transfected in conjunction with [^3H]CP-55,940 as radioligand. After incubation of a freshly prepared cell membrane preparation with the [^3H]-ligand, with or without addition of compounds of the invention, separation of bound and free ligand is performed by filtration over glassfiber filters. Radioactivity on the filter is measured by liquid scintillation counting.

[2] = target: T2, human cannabinoid CB2 receptor (Homo sapiens, UniProt P34972); assay: In vitro affinity for human cannabinoid CB2 receptors ([3H]CP-55,940 radioligand binding, CHO cell membranes)
T2 construct: expressed in transfected cells; host or cells: Chinese hamster ovary (CHO) cells, membrane preparation
T2 sequence (P34972 whole entry): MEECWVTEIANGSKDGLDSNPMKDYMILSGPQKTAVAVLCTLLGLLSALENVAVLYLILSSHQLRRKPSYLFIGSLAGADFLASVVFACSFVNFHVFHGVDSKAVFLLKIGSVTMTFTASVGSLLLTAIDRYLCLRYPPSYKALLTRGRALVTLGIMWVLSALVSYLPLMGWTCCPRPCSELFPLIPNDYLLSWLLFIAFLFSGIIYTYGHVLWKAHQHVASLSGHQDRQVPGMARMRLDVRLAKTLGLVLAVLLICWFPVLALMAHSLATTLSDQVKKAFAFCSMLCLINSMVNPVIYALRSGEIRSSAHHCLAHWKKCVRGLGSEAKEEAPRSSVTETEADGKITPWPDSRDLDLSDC
Experimental: In Vitro Affinity for Human Cannabinoid CB2 Receptors
as §1, with “CB2” for “CB1”

[3] = membranes of CHO cells stably transfected with human CB1, [3H]CP-55,940 radioligand, read-out: Receptor affinity Human CB1 pKi-value (converted)

Structure (SMILES)	Ki [1, 3] [nM]	Ki ([2]; membranes of CHO cells stably transfected with human CB2, [3H]CP-55,940 radioligand, read-out: Receptor affinity Human CB2 pKi-value (converted)) [nM]	Ki [1] [nM]	Ki [2] [nM]
CCCCC(=O)c1nc(-c2ccc(Cl)cc2Cl)c(-c2ccccc2)s1 [Example 1, 1-[4-(2,4-dichlorophenyl)-5-phenylthiazol-2-yl]pentan-1-one]	251			
CCCCCCC(=O)c1nc(-c2ccccc2Cl)c(-c2ccccc2)s1 [Example 4]	158			
CCCCCc1nc(C(=O)NC23CC4CC(CC(C4)C2)C3)sc1-c1ccccc1 [Example 9, N-(adamant-1-yl)-4-(n-pentyl)-5-phenylthiazole-2-carboxamide]	15.8	7.94		
CCCCCc1nc(C(=O)NC2CCCCC2)sc1-c1ccccc1 [Example 11]			251	20
